Broadly, the IC50 is the concentration that inhibits the measured activity by half.

Structures can show the parent of a compound that is named as a salt.

T1 sequence (P14902 whole entry): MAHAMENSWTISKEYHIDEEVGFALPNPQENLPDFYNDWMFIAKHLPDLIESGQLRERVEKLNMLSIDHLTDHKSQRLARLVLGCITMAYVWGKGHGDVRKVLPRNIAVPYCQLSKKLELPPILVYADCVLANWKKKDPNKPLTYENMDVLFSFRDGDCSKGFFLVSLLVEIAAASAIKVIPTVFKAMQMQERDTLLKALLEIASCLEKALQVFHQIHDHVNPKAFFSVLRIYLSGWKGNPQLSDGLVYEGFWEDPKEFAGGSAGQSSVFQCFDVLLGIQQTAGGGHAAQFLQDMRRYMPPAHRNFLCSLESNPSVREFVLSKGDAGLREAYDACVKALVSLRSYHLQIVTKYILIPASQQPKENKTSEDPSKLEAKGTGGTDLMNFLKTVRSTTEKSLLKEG

This assay has as its target T1, human IDO1 (Homo sapiens, UniProt P14902).
T1 construct: expressed in transfected cells
The assay is described as follows: HEK Human IDO-1 inhibition assay (kynurenine readout, Ehrlich reagent, absorbance 490 nm). The class given is cell-based. The conditions noted are these: human IDO1/HEK293 cells, incubated 20 hours with compound; 500 nM reference standard = 100% inhibition. Here is the method:
HEK293 cells were transfected with a pCDNA-based mammalian expression vector harboring human IDO1 cDNA (NM 002164.2) by electroporation. They were cultured in medium (DMEM with 10% FBS) containing 1 mg/ml G418 for two weeks. Clones of HEK293 cells that stably expressed human IDO1 protein were selected and expanded for IDO inhibition assay.
The human IDO1/HEK293 cells were seeded at 10,000 cells per 50 uL per well with RPMI/phenol red free media contains 10% FBS in a 384-well black wall clear bottom tissue culture plate (Matrix Technologies LLC) 100 nL of certain concentration of compound was then added to each well using ECHO liquid handling systems. The cells were incubated for 20 hours in 37° C. incubator with 5% CO2.
The compound treatments were stopped by adding Trichloroacetic Acid (Sigma-Aldrich) to a final concentration at 0.2%. The cell plate was further incubated at 50° C. for 30 minute. The equal volume supernatant (20 uL) and 0.2% (w/v) Ehrlich reagent (4-dimethylaminobenzaldehyde, Sigma-Aldrich) in glacial acetic acid were mixed in a new clear bottom 384-well plate. This plate was then incubated at room temperature for 30 minute. The absorbance at 490 nm was measured on Envision plate reader. Compound IC50 values were calculated using the counts of 500 nM of a reference standard treatment as one hundred percent inhibition, and counts of no compound but DMSO treatment as zero percent inhibition.
As to `CC(C)CN(c1ccc(OC(C)C(=O)O)cc1NC(=O)Nc1ccc(C#N)cc1)C1CCCCC1` (single isomer, unassigned) [Example 66-1, 2-(3-(3-(4-cyanophenyl)ureido)-4-(cyclohexyl(isobutyl)amino)phenoxy)propanoic acid], the IC50 is under 100 nM. As to `CC(C)CN(c1ccc(OC(C)C(=O)O)cc1NC(=O)Nc1ccc(C#N)cc1)C1CCCCC1` (single isomer, unassigned) [Example 66-2, 2-(3-(3-(4-cyanophenyl)ureido)-4-(cyclohexyl(isobutyl)amino)phenoxy)propanoic acid], the 50% inhibitory concentration (IC50) is under 5 nM. Take `CCOC(=O)C(C)Oc1ccc(N(CC(C)C)C2CCCCC2)c(NC(=O)Nc2ccc(Cl)cc2F)c1` (single isomer, unassigned) [Example 67-1, ethyl 2-(3-(3-(4-chloro-2-fluorophenyl)ureido)-4-(cyclohexyl(isobutyl)amino)phenoxy)propanoate]: the IC50 is under 100 nM. Under `CCOC(=O)C(C)Oc1ccc(N(CC(C)C)C2CCCCC2)c(NC(=O)Nc2ccc(Cl)cc2F)c1` (single isomer, unassigned) [Example 67-2, ethyl 2-(3-(3-(4-chloro-2-fluorophenyl)ureido)-4-(cyclohexyl(isobutyl)amino)phenoxy)propanoate] stands under 5 nM; under `CCC(Oc1ccc(N(CC(C)C)C2CCCCC2)c(NC(=O)Nc2ccc(Cl)cc2F)c1)C(=O)O` (single isomer, unassigned) [Example 80-1, 2-(3-(3-(4-chloro-2-fluorophenyl)ureido)-4-(cyclohexyl(isobutyl)amino)phenoxy)butanoic acid], under 5 nM. To `CCC(Oc1ccc(N(CC(C)C)C2CCCCC2)c(NC(=O)Nc2ccc(Cl)cc2F)c1)C(=O)O` (single isomer, unassigned) [Example 80-2, 2-(3-(3-(4-chloro-2-fluorophenyl)ureido)-4-(cyclohexyl(isobutyl)amino)phenoxy)butanoic acid] belongs under 5 nM; to `CCC(Oc1ccc(N(CC(C)C)C2CCCCC2)c(NC(=O)Nc2ccccc2F)c1)C(=O)O` (single isomer, unassigned) [Example 81-1, 2-(4-(cyclohexyl(isobutyl)amino)-3-(3-(2-fluorophenyl)ureido)phenoxy)butanoic acid], under 5 nM. To `CCC(Oc1ccc(N(CC(C)C)C2CCCCC2)c(NC(=O)Nc2ccccc2F)c1)C(=O)O` (single isomer, unassigned) [Example 81-2, 2-(4-(cyclohexyl(isobutyl)amino)-3-(3-(2-fluorophenyl)ureido)phenoxy)butanoic acid] belongs under 5 nM; to `CCC(Oc1ccc(N(CC(C)C)C2CCCCC2)c(NC(=O)Nc2ccc(C)cc2)c1)C(=O)O` (single isomer, unassigned) [Example 82-1, 2-(4-(cyclohexyl(isobutyl)amino)-3-(3-(p-tolyl)ureido)phenoxy)butanoic acid], under 5 nM. Consider `CCC(Oc1ccc(N(CC(C)C)C2CCCCC2)c(NC(=O)Nc2ccc(C)cc2)c1)C(=O)O` (single isomer, unassigned) [Example 82-2, 2-(4-(cyclohexyl(isobutyl)amino)-3-(3-(p-tolyl)ureido)phenoxy)butanoic acid], for which the IC50 is under 100 nM.

`CCCC(Oc1ccc(N(CC(C)C)C2CCCCC2)c(NC(=O)Nc2ccc(Cl)cc2F)c1)C(=O)O` (single isomer, unassigned) [Example 85-1, 2-(3-(3-(4-chloro-2-fluorophenyl)ureido)-4-(cyclohexyl(isobutyl)amino)phenoxy)pentanoic acid]: the IC50 is under 5 nM.

Take `CCCC(Oc1ccc(N(CC(C)C)C2CCCCC2)c(NC(=O)Nc2ccc(Cl)cc2F)c1)C(=O)O` (single isomer, unassigned) [Example 85-2, 2-(3-(3-(4-chloro-2-fluorophenyl)ureido)-4-(cyclohexyl(isobutyl)amino)phenoxy)pentanoic acid]: the IC50 was under 5 nM. For the molecule `CCCC(Oc1ccc(N(CC(C)C)C2CCCCC2)c(NC(=O)Nc2ccc(C)cc2)c1)C(=O)O` (single isomer, unassigned) [Example 86-1, 2-(4-(cyclohexyl(isobutyl)amino)-3-(3-(p-tolyl)ureido)phenoxy)pentanoic acid], the IC50 was under 100 nM.

Regarding `CCCC(Oc1ccc(N(CC(C)C)C2CCCCC2)c(NC(=O)Nc2ccc(C)cc2)c1)C(=O)O` (single isomer, unassigned) [Example 86-2, 2-(4-(cyclohexyl(isobutyl)amino)-3-(3-(p-tolyl)ureido)phenoxy)pentanoic acid], the IC50 was under 5 nM. Under `CCCC(Oc1ccc(N(CC(C)C)C2CCCCC2)c(NC(=O)Nc2ccccc2F)c1)C(=O)O` (single isomer, unassigned) [Example 87-1, 2-(4-(cyclohexyl(isobutyl)amino)-3-(3-(2-fluorophenyl)ureido)phenoxy)pentanoic acid] stands under 5 nM. Consider `CCCC(Oc1ccc(N(CC(C)C)C2CCCCC2)c(NC(=O)Nc2ccccc2F)c1)C(=O)O` (single isomer, unassigned) [Example 87-2, 2-(4-(cyclohexyl(isobutyl)amino)-3-(3-(2-fluorophenyl)ureido)phenoxy)pentanoic acid], for which the IC50 is under 5 nM.

As for `CCCC(Oc1ccc(N(CC(C)C)C2CCCCC2)c(NC(=O)Nc2cncnc2)c1)C(=O)O` (single isomer, unassigned) [Example 88-1, 2-(4-(cyclohexyl(isobutyl)amino)-3-(3-(pyrimidin-5-yl)ureido)phenoxy)pentanoic acid], the IC50 was at least 100 nM. To `CCCC(Oc1ccc(N(CC(C)C)C2CCCCC2)c(NC(=O)Nc2cncnc2)c1)C(=O)O` (single isomer, unassigned) [Example 88-2, 2-(4-(cyclohexyl(isobutyl)amino)-3-(3-(pyrimidin-5-yl)ureido)phenoxy)pentanoic acid] belongs under 100 nM. With `COCC(Oc1ccc(N(CC(C)C)C2CCCCC2)c(NC(=O)Nc2ccc(Cl)cc2F)c1)C(=O)O` (single isomer, unassigned) [Example 89-1, 2-(3-(3-(4-chloro-2-fluorophenyl)ureido)-4-(cyclohexyl(isobutyl)amino)phenoxy)-3-methoxypropanoic acid], the IC50 is under 5 nM. To `COCC(Oc1ccc(N(CC(C)C)C2CCCCC2)c(NC(=O)Nc2ccc(Cl)cc2F)c1)C(=O)O` (single isomer, unassigned) [Example 89-2, 2-(3-(3-(4-chloro-2-fluorophenyl)ureido)-4-(cyclohexyl(isobutyl)amino)phenoxy)-3-methoxypropanoic acid] belongs under 100 nM; to `COCC(Oc1ccc(N(CC(C)C)C2CCCCC2)c(NC(=O)Nc2ccc(C)cc2)c1)C(=O)O` (single isomer, unassigned) [Example 90-1, 2-(4-(cyclohexyl(isobutyl)amino)-3-(3-(p-tolyl)ureido)phenoxy)-3-methoxypropanoic acid], at least 100 nM; to `COCC(Oc1ccc(N(CC(C)C)C2CCCCC2)c(NC(=O)Nc2ccc(C)cc2)c1)C(=O)O` (single isomer, unassigned) [Example 90-2, 2-(4-(cyclohexyl(isobutyl)amino)-3-(3-(p-tolyl)ureido)phenoxy)-3-methoxypropanoic acid], under 100 nM. To `CC(C)CN(c1cc(F)c(OC(C)C(=O)O)cc1NC(=O)Nc1ccc(Cl)cc1F)C1CCCCC1` (single isomer, unassigned) [Example 136-1, 2-(5-(3-(4-chloro-2-fluorophenyl)ureido)-4-(cyclohexyl(isobutyl)amino)-2-fluorophenoxy)propanoic acid.TFA] belongs under 5 nM; to `C=C(C)CN(c1ccc(OC(C)C(=O)O)cc1NC(=O)Nc1ccc(Cl)cc1F)C1CCOCC1` (single isomer, unassigned) [Example 139-1, 2-(3-(3-(4-chloro-2-fluorophenyl)ureido)-4-((2-methylallyl)(tetrahydro-2H-pyran-4-yl)amino)phenoxy)propanoic acid], under 100 nM; to `C=C(C)CN(c1ccc(OC(C)C(=O)O)cc1NC(=O)Nc1ccc(Cl)cc1F)C1CCOCC1` (single isomer, unassigned) [Example 139-2, 2-(3-(3-(4-chloro-2-fluorophenyl)ureido)-4-((2-methylallyl)(tetrahydro-2H-pyran-4-yl)amino)phenoxy)propanoic acid], under 5 nM.

Consider `CCC(Oc1ccc(N(CC(C)C)C2CCOCC2)c(NC(=O)Nc2ccc(Cl)cc2F)c1)C(=O)O` (single isomer, unassigned) [Example 143-1, 2-(3-(3-(4-chloro-2-fluorophenyl)ureido)-4-(isobutyl(tetrahydro-2H-pyran-4-yl)amino)phenoxy)butanoic acid], for which the IC50 was under 100 nM. Under `CCC(Oc1ccc(N(CC(C)C)C2CCOCC2)c(NC(=O)Nc2ccc(Cl)cc2F)c1)C(=O)O` (single isomer, unassigned) [Example 143-2, 2-(3-(3-(4-chloro-2-fluorophenyl)ureido)-4-(isobutyl(tetrahydro-2H-pyran-4-yl)amino)phenoxy)butanoic acid] stands under 5 nM; under `CC(C)CN(c1ccc(OC(C)C(=O)O)cc1NC(=O)Nc1ccc(Cl)cc1F)C1CCOC1` (single isomer, unassigned) [Example 146-1, 2-(3-(3-(4-chloro-2-fluorophenyl)ureido)-4-(isobutyl(tetrahydrofuran-3-yl)amino)phenoxy)propanoic acid], at least 100 nM.

(Values after patent US10689331B2, “IDO inhibitors” (Bristol-Myers Squibb Company, priority 2015, dated 2020).)
